The supplement of paper PMC10883282

Key:
Assay in all cases: standardised AUC of viability dose-response curve (72 h) (fraction (0-1)); higher = less growth inhibition (more resistant)
KHOS-240S = tested on: KHOS-240S
In short: (§1)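 Viability of sarcoma cell lines was read with ATPLite after 72 h of triplicate treatment in 384-well plates with 2.5 µl of compound from a compound-plate series of 10 mM to 0.0002 mM. Viability was scaled 1 (full) to 0 (none) and fitted with a four-parameter log-logistic model for each drug and cell line. The reported standardised area under the dose-response curve in log-dose space comes from a modified drexplorer computeAUC, where 1 is no response and 0 is full response.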

G401 = tested on: G401
In short: as §1

SK-LMS-1 = tested on: SK-LMS-1
In short: as §1

SW1353 = tested on: SW1353
In short: as §1

A204 = tested on: A204
In short: as §1

HT1080 = tested on: HT1080
In short: as §1

SW872 = tested on: SW872
In short: as §1

SK-ES-1 = tested on: SK-ES-1
In short: as §1

MES-SA = tested on: MES-SA
In short: as §1

KHOS-NP = tested on: KHOS-NP
In short: as §1

HS729 = tested on: HS729
In short: as §1

SW684 = tested on: SW684
In short: as §1

RD = tested on: RD
In short: as §1

RD-ES = tested on: RD-ES
In short: as §1

SYO-1 = tested on: SYO-1
In short: as §1

VA-ES-BJ = tested on: VA-ES-BJ
In short: as §1

SW982 = tested on: SW982
In short: as §1

FC(F)(F)c1ccc(CNc2ccc(Cc3c[nH]c4ncc(Cl)cc34)cn2)cn1 [PEXIDARTINIB]
standardised AUC (KHOS-240S): 0.975
standardised AUC (G401): 0.946
standardised AUC (SK-LMS-1): 0.979
standardised AUC (SW1353): 0.935
standardised AUC (A204): 0.837
standardised AUC (HT1080): 0.953
standardised AUC (SW872): 0.939
standardised AUC (SK-ES-1): 0.97
standardised AUC (MES-SA): 0.978
standardised AUC (KHOS-NP): 0.955
standardised AUC (HS729): 0.903
standardised AUC (SW684): 0.974
standardised AUC (RD): 1
standardised AUC (RD-ES): 0.991
standardised AUC (SYO-1): 0.861
standardised AUC (VA-ES-BJ): 0.976
standardised AUC (SW982): 1

Cc1cn(-c2cc(NC(=O)c3ccc(C)c(Nc4nccc(-c5cnccn5)n4)c3)cc(C(F)(F)F)c2)cn1 [RADOTINIB]
standardised AUC (KHOS-240S): 0.988
standardised AUC (G401): 0.977
standardised AUC (SK-LMS-1): 1
standardised AUC (SW1353): 1
standardised AUC (A204): 0.894
standardised AUC (HT1080): 0.997
standardised AUC (SW872): 0.967
standardised AUC (SK-ES-1): 0.999
standardised AUC (MES-SA): 1
standardised AUC (KHOS-NP): 0.992
standardised AUC (HS729): 0.976
standardised AUC (SW684): 1
standardised AUC (RD): 0.992
standardised AUC (RD-ES): 0.996
standardised AUC (SYO-1): 0.929
standardised AUC (VA-ES-BJ): 1
standardised AUC (SW982): 0.995

CO[C@H]1C[C@@H]2CC[C@@H](C)[C@@](O)(O2)C(=O)C(=O)N2CCCC[C@H]2C(=O)O[C@H]([C@H](C)C[C@@H]2CC[C@@H](O)[C@H](OC)C2)CC(=O)[C@H](C)/C=C(\C)[C@@H](O)[C@@H](OC)C(=O)[C@H](C)C[C@H](C)/C=C/C=C/C=C/1C [RAPAMYCIN]
standardised AUC (KHOS-240S): 0.815
standardised AUC (G401): 0.814
standardised AUC (SK-LMS-1): 0.665
standardised AUC (SW1353): 0.856
standardised AUC (A204): 0.607
standardised AUC (HT1080): 0.916
standardised AUC (SW872): 0.729
standardised AUC (SK-ES-1): 0.63
standardised AUC (MES-SA): 0.489
standardised AUC (KHOS-NP): 0.989
standardised AUC (HS729): 0.944
standardised AUC (SW684): 0.763
standardised AUC (RD): 0.712
standardised AUC (RD-ES): 0.778
standardised AUC (SYO-1): 0.846
standardised AUC (VA-ES-BJ): 0.589
standardised AUC (SW982): 0.724

C=CC(=O)Nc1cccc(Nc2nc(Nc3ccc(N4CCN(C(C)=O)CC4)cc3OC)ncc2C(F)(F)F)c1 [ROCILETINIB]
standardised AUC (KHOS-240S): 0.929
standardised AUC (G401): 0.886
standardised AUC (SK-LMS-1): 0.893
standardised AUC (SW1353): 0.889
standardised AUC (A204): 0.912
standardised AUC (HT1080): 0.973
standardised AUC (SW872): 0.912
standardised AUC (SK-ES-1): 0.831
standardised AUC (MES-SA): 0.874
standardised AUC (KHOS-NP): 0.975
standardised AUC (HS729): 0.878
standardised AUC (SW684): 0.937
standardised AUC (RD): 0.899
standardised AUC (RD-ES): 0.857
standardised AUC (SYO-1): 0.867
standardised AUC (VA-ES-BJ): 0.921
standardised AUC (SW982): 0.906

CN(C)C[C@@H]1CCn2cc(c3ccccc32)C2=C(C(=O)NC2=O)c2cn(c3ccccc23)CCO1 [RUBOXISTAURIN]
standardised AUC (KHOS-240S): 0.99
standardised AUC (G401): 0.954
standardised AUC (SK-LMS-1): 0.929
standardised AUC (SW1353): 0.947
standardised AUC (A204): 0.926
standardised AUC (HT1080): 0.995
standardised AUC (SW872): 0.953
standardised AUC (SK-ES-1): 0.911
standardised AUC (MES-SA): 0.951
standardised AUC (KHOS-NP): 0.99
standardised AUC (HS729): 0.969
standardised AUC (SW684): 0.991
standardised AUC (RD): 0.99
standardised AUC (RD-ES): 0.945
standardised AUC (SYO-1): 0.861
standardised AUC (VA-ES-BJ): 0.946
standardised AUC (SW982): 0.947

CN1CCN(CCOc2cc(OC3CCOCC3)c3c(Nc4c(Cl)ccc5c4OCO5)ncnc3c2)CC1 [SARACATINIB]
standardised AUC (KHOS-240S): 0.884
standardised AUC (G401): 0.918
standardised AUC (SK-LMS-1): 0.908
standardised AUC (SW1353): 0.865
standardised AUC (A204): 0.906
standardised AUC (HT1080): 0.981
standardised AUC (SW872): 0.858
standardised AUC (SK-ES-1): 0.931
standardised AUC (MES-SA): 0.943
standardised AUC (KHOS-NP): 0.951
standardised AUC (HS729): 0.849
standardised AUC (SW684): 0.977
standardised AUC (RD): 0.871
standardised AUC (RD-ES): 0.955
standardised AUC (SYO-1): 0.851
standardised AUC (VA-ES-BJ): 0.938
standardised AUC (SW982): 0.821

CNC(=O)c1cc(Oc2ccc(NC(=O)Nc3ccc(Cl)c(C(F)(F)F)c3)cc2)ccn1 [SORAFENIB]
standardised AUC (KHOS-240S): 0.93
standardised AUC (G401): 0.916
standardised AUC (SK-LMS-1): 0.917
standardised AUC (SW1353): 0.951
standardised AUC (A204): 0.756
standardised AUC (HT1080): 0.944
standardised AUC (SW872): 0.978
standardised AUC (SK-ES-1): 0.949
standardised AUC (MES-SA): 0.925
standardised AUC (KHOS-NP): 0.907
standardised AUC (HS729): 0.943
standardised AUC (SW684): 0.936
standardised AUC (RD): 0.951
standardised AUC (RD-ES): 0.966
standardised AUC (SYO-1): 0.841
standardised AUC (VA-ES-BJ): 0.95
standardised AUC (SW982): 0.975

CCN(c1cc(-c2ccc(CN3CCOCC3)cc2)cc(C(=O)NCc2c(C)cc(C)[nH]c2=O)c1C)C1CCOCC1 [TAZEMETOSTAT]
standardised AUC (KHOS-240S): 0.971
standardised AUC (G401): 0.989
standardised AUC (SK-LMS-1): 0.977
standardised AUC (SW1353): 0.973
standardised AUC (A204): 0.998
standardised AUC (HT1080): 0.988
standardised AUC (SW872): 0.986
standardised AUC (SK-ES-1): 0.96
standardised AUC (MES-SA): 0.976
standardised AUC (KHOS-NP): 0.963
standardised AUC (HS729): 0.946
standardised AUC (SW684): 0.998
standardised AUC (RD): 0.997
standardised AUC (RD-ES): 0.985
standardised AUC (SYO-1): 0.971
standardised AUC (VA-ES-BJ): 1
standardised AUC (SW982): 0.985

Cc1cccc(-c2[nH]c(CNc3ccccc3F)nc2-c2ccc3ncnn3c2)n1 [VACTOSERTIB]
standardised AUC (KHOS-240S): 0.957
standardised AUC (G401): 0.993
standardised AUC (SK-LMS-1): 0.995
standardised AUC (SW1353): 0.992
standardised AUC (A204): 0.982
standardised AUC (HT1080): 1
standardised AUC (SW872): 1
standardised AUC (SK-ES-1): 0.997
standardised AUC (MES-SA): 0.991
standardised AUC (KHOS-NP): 0.989
standardised AUC (HS729): 0.917
standardised AUC (SW684): 0.959
standardised AUC (RD): 0.996
standardised AUC (RD-ES): 0.99
standardised AUC (SYO-1): 0.911
standardised AUC (VA-ES-BJ): 1
standardised AUC (SW982): 0.995

C[C@@H]1COC(Nc2ccc3ncnc(Nc4ccc(OCc5nccs5)c(Cl)c4)c3c2)=N1 [VARLITINIB]
standardised AUC (KHOS-240S): 0.975
standardised AUC (G401): 0.953
standardised AUC (SK-LMS-1): 0.987
standardised AUC (SW1353): 0.928
standardised AUC (A204): 0.918
standardised AUC (HT1080): 0.974
standardised AUC (SW872): 0.962
standardised AUC (SK-ES-1): 0.97
standardised AUC (MES-SA): 0.954
standardised AUC (KHOS-NP): 0.992
standardised AUC (HS729): 0.955
standardised AUC (SW684): 0.994
standardised AUC (RD): 1
standardised AUC (RD-ES): 0.989
standardised AUC (SYO-1): 0.97
standardised AUC (VA-ES-BJ): 0.994
standardised AUC (SW982): 0.975

CC[C@@H]1C(=O)N(C)c2cnc(Nc3ccc(C(=O)N[C@H]4CC[C@H](N5CCN(CC6CC6)CC5)CC4)cc3OC)nc2N1C(C)C [VOLASERTIB]
standardised AUC (KHOS-240S): 0.534
standardised AUC (G401): 0.653
standardised AUC (SK-LMS-1): 0.635
standardised AUC (SW1353): 0.723
standardised AUC (A204): 0.647
standardised AUC (HT1080): 0.601
standardised AUC (SW872): 0.578
standardised AUC (SK-ES-1): 0.52
standardised AUC (MES-SA): 0.555
standardised AUC (KHOS-NP): 0.642
standardised AUC (HS729): 0.766
standardised AUC (SW684): 0.693
standardised AUC (RD): 0.533
standardised AUC (RD-ES): 0.504
standardised AUC (SYO-1): 0.453
standardised AUC (VA-ES-BJ): 0.531
standardised AUC (SW982): 0.547
